Assay results published in PMC11480411, “Mucosal sugars delineate pyrazine vs pyrazinone autoinducer signaling in Klebsiella oxytoca” (Nature Communications, 2024).

Legend:
Assay in all cases: PRESTO-Tango GPCR screen
Assay type in all cases: cell-based
Settings in all cases: 100 µM
MC3R = target: T1, MC3R (Homo sapiens, UniProt P41968)
T1 construct: purchased PRESTO-Tango GPCR kit (Roth lab / Addgene)
Outline: (§1)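 HTLA cells (HEK293 stably expressing β-arrestin-TEV and tTA-luciferase) transiently transfected with GPCR-Tango plasmids, then exposed to compound at 100 μM final for 20 h. Luminescence read after Bright-Glo; activation fold = RLU over PBS control. Dose-response spanned 10^−4 M to 10^−15 M.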

ADRB3 = target: T2, ADRB3 (Homo sapiens, UniProt P13945)
T2 construct: purchased PRESTO-Tango GPCR kit (Roth lab / Addgene)
Outline: as §1

NPBW1 = target: T3, NPBW1 (Homo sapiens, UniProt P48145)
T3 construct: purchased PRESTO-Tango GPCR kit (Roth lab / Addgene)
Outline: as §1

LTB4R = target: T4, LTB4R (Homo sapiens, UniProt Q15722)
T4 construct: purchased PRESTO-Tango GPCR kit (Roth lab / Addgene)
Outline: as §1

CHRM5 = target: T5, CHRM5 (Homo sapiens, UniProt P08912)
T5 construct: purchased PRESTO-Tango GPCR kit (Roth lab / Addgene)
Outline: as §1

CRHR1 = target: T6, CRHR1 (Homo sapiens, UniProt P34998)
T6 construct: purchased PRESTO-Tango GPCR kit (Roth lab / Addgene)
Outline: as §1

ADRA2B = target: T7, ADRA2B (Homo sapiens, UniProt P18089)
T7 construct: purchased PRESTO-Tango GPCR kit (Roth lab / Addgene)
Outline: as §1

DRD1 = target: T8, DRD1 (Homo sapiens, UniProt P21728)
T8 construct: purchased PRESTO-Tango GPCR kit (Roth lab / Addgene)
Outline: as §1

MRGPRX3 = target: T9, MRGPRX3 (Homo sapiens, UniProt Q96LB0)
T9 construct: purchased PRESTO-Tango GPCR kit (Roth lab / Addgene)
T9 sequence (Q96LB0 whole entry): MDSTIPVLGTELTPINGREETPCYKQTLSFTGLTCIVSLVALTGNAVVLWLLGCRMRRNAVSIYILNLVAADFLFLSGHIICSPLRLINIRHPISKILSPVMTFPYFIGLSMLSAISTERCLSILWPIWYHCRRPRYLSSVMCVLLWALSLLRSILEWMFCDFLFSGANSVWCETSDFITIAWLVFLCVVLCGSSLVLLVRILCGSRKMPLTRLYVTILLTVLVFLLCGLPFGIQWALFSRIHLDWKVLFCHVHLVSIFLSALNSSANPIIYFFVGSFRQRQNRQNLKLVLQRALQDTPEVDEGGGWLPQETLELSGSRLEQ
Outline: as §1

PTGER3 = target: T10, PTGER3 (Homo sapiens, UniProt P43115)
T10 construct: purchased PRESTO-Tango GPCR kit (Roth lab / Addgene)
Outline: as §1

GPR56 = target: T11, GPR56 (Homo sapiens, UniProt Q9Y653)
T11 construct: purchased PRESTO-Tango GPCR kit (Roth lab / Addgene)
T11 sequence (Q9Y653 26-693): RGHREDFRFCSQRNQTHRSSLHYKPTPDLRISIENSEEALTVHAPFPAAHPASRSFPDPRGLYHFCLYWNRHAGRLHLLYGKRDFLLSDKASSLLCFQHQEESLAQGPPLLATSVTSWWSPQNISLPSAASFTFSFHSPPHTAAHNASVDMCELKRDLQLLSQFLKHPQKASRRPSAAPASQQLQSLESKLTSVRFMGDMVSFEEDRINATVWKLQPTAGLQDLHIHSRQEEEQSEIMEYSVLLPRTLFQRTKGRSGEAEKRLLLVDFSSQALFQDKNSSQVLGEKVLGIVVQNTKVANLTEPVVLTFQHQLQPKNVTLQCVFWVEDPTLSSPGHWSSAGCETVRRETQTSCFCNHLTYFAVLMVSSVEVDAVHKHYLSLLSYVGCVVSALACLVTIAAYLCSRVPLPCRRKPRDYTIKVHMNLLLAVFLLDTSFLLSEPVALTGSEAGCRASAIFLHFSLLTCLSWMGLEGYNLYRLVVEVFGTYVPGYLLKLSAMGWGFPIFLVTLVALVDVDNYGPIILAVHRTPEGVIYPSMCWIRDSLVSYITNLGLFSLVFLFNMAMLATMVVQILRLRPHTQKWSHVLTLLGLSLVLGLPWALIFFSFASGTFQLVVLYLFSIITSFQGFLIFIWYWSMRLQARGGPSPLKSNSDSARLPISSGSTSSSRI
Outline: as §1

GPR111 = target: T12, GPR111 (Homo sapiens, UniProt Q8IZF7)
T12 construct: purchased PRESTO-Tango GPCR kit (Roth lab / Addgene)
Outline: as §1

GPRC6A = target: T13, GPRC6A (Homo sapiens, UniProt Q5T6X5)
T13 construct: purchased PRESTO-Tango GPCR kit (Roth lab / Addgene)
Outline: as §1

CHRM2 = target: T14, CHRM2 (Homo sapiens, UniProt P08172)
T14 construct: purchased PRESTO-Tango GPCR kit (Roth lab / Addgene)
T14 sequence (P08172 whole entry): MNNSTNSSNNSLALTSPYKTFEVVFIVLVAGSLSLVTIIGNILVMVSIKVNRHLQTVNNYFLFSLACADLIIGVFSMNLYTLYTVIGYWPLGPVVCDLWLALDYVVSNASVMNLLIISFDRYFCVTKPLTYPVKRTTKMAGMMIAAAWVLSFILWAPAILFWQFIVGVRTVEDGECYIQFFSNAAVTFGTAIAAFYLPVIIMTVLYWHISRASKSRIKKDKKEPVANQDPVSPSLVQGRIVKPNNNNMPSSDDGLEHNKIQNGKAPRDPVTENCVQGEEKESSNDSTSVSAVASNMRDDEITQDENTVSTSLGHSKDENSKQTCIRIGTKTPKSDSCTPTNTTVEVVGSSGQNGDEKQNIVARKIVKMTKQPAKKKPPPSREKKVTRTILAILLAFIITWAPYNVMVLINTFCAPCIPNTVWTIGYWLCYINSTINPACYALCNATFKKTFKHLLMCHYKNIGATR
Outline: as §1

OPRL1 = target: T15, OPRL1 (Homo sapiens, UniProt P41146)
T15 construct: purchased PRESTO-Tango GPCR kit (Roth lab / Addgene)
Outline: as §1

AVPR2 = target: T16, AVPR2 (Homo sapiens, UniProt P30518)
T16 construct: purchased PRESTO-Tango GPCR kit (Roth lab / Addgene)
T16 sequence (P30518 whole entry): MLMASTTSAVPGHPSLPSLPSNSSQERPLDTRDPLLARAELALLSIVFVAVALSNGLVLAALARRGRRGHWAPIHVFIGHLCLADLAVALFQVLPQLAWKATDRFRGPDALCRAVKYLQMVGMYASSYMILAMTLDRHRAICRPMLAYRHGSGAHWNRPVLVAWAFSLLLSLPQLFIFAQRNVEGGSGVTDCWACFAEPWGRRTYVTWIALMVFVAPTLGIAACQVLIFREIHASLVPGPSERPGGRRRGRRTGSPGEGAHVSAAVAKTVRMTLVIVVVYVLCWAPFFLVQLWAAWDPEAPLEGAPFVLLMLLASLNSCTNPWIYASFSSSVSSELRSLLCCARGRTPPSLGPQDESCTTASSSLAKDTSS
Outline: as §1

CYSLTR2 = target: T17, CYSLTR2 (Homo sapiens, UniProt Q9NS75)
T17 construct: purchased PRESTO-Tango GPCR kit (Roth lab / Addgene)
Outline: as §1

CCR6 = target: T18, CCR6 (Homo sapiens, UniProt P51684)
T18 construct: purchased PRESTO-Tango GPCR kit (Roth lab / Addgene)
Outline: as §1

GPRC5B = target: T19, GPRC5B (Homo sapiens, UniProt Q9NZH0)
T19 construct: purchased PRESTO-Tango GPCR kit (Roth lab / Addgene)
T19 sequence (Q9NZH0 29-403): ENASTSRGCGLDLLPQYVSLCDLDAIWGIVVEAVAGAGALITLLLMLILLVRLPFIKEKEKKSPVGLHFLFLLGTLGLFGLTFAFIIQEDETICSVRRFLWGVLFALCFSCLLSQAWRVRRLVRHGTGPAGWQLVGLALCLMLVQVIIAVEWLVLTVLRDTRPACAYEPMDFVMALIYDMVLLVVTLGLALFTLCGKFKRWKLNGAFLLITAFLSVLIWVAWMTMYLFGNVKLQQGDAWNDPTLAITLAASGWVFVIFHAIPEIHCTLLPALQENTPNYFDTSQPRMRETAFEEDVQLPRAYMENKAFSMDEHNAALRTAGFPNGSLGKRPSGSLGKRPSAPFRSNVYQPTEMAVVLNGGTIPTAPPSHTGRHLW
Outline: as §1

CHRM3 = target: T20, CHRM3 (Homo sapiens, UniProt P20309)
T20 construct: purchased PRESTO-Tango GPCR kit (Roth lab / Addgene)
Outline: as §1

GPR125 = target: T21, GPR125 (Homo sapiens, UniProt Q8IWK6)
T21 construct: purchased PRESTO-Tango GPCR kit (Roth lab / Addgene)
Outline: as §1

GPR26 = target: T22, GPR26 (Homo sapiens, UniProt Q8NDV2)
T22 construct: purchased PRESTO-Tango GPCR kit (Roth lab / Addgene)
Outline: as §1

NPY4R = target: T23, NPY4R (Homo sapiens, UniProt P50391)
T23 construct: purchased PRESTO-Tango GPCR kit (Roth lab / Addgene)
T23 sequence (P50391 whole entry): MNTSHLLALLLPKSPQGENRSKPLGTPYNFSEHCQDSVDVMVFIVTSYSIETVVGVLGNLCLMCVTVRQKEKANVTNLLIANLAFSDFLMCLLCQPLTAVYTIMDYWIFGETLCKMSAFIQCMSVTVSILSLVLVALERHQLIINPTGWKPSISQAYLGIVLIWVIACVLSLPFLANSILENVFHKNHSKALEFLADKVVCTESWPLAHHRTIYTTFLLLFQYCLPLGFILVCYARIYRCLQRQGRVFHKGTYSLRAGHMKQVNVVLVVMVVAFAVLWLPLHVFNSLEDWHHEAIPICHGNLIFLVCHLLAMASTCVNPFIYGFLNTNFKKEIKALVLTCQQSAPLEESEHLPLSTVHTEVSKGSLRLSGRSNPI
Outline: as §1

RXFP1 = target: T24, RXFP1 (Homo sapiens, UniProt Q9HBX9)
T24 construct: purchased PRESTO-Tango GPCR kit (Roth lab / Addgene)
T24 sequence (Q9HBX9 whole entry): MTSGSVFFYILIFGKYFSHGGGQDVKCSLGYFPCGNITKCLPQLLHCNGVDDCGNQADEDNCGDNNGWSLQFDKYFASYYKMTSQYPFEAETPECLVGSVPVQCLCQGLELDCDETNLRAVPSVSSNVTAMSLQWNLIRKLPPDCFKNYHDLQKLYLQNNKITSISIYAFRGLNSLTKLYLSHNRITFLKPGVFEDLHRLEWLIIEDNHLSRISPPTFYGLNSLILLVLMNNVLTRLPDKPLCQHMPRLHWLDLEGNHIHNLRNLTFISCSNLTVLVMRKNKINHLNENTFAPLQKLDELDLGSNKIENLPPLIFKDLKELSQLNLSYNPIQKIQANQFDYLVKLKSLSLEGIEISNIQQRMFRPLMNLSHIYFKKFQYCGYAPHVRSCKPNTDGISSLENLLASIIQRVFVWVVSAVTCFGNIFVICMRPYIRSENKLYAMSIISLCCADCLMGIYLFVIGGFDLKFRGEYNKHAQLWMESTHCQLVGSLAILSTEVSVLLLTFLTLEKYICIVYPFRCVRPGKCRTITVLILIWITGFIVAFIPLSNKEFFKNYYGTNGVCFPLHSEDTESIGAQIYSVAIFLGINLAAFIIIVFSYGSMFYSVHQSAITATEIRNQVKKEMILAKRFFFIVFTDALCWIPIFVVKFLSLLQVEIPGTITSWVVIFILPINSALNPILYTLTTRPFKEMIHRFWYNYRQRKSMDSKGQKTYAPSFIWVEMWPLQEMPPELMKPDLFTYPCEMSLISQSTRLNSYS
Outline: as §1

MTNR1A = target: T25, MTNR1A (Homo sapiens, UniProt P48039)
T25 construct: purchased PRESTO-Tango GPCR kit (Roth lab / Addgene)
Outline: as §1

GPR62 = target: T26, GPR62 (Homo sapiens, UniProt Q9BZJ7)
T26 construct: purchased PRESTO-Tango GPCR kit (Roth lab / Addgene)
Outline: as §1

P2RY14 = target: T27, P2RY14 (Homo sapiens, UniProt Q15391)
T27 construct: purchased PRESTO-Tango GPCR kit (Roth lab / Addgene)
Outline: as §1

PTH2R = target: T28, PTH2R (Homo sapiens, UniProt P49190)
T28 construct: purchased PRESTO-Tango GPCR kit (Roth lab / Addgene)
Outline: as §1

GLP1R = target: T29, GLP1R (Homo sapiens, UniProt P43220)
T29 construct: purchased PRESTO-Tango GPCR kit (Roth lab / Addgene)
T29 sequence (P43220 24-463): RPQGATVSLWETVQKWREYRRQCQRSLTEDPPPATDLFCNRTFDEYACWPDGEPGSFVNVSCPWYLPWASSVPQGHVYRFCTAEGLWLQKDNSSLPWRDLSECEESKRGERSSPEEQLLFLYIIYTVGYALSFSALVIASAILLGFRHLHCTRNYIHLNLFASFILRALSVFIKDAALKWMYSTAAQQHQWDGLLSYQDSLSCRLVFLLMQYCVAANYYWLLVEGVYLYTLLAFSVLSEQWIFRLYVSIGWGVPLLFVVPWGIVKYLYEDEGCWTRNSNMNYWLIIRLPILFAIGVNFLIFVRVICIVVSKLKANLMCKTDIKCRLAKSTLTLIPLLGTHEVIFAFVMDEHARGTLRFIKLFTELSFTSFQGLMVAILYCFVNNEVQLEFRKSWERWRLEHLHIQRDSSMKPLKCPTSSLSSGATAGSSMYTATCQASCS
Outline: as §1

NPS = target: T30, NPS (Homo sapiens, UniProt Q6W5P4)
T30 construct: purchased PRESTO-Tango GPCR kit (Roth lab / Addgene)
Outline: as §1

NPY5R = target: T31, NPY5R (Homo sapiens, UniProt Q15761)
T31 construct: purchased PRESTO-Tango GPCR kit (Roth lab / Addgene)
Outline: as §1

GPR78 = target: T32, GPR78 (Homo sapiens, UniProt Q96P69)
T32 construct: purchased PRESTO-Tango GPCR kit (Roth lab / Addgene)
T32 sequence (Q96P69 whole entry): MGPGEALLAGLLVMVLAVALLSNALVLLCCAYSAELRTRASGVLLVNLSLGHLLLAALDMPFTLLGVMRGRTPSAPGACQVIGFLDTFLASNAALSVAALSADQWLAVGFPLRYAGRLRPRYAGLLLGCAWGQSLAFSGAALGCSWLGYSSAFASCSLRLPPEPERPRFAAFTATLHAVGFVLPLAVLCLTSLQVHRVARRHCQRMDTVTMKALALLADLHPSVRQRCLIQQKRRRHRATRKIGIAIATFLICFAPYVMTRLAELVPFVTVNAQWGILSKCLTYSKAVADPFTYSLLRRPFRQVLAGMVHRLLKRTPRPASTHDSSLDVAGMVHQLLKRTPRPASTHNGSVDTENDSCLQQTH
Outline: as §1

CXCR3 = target: T33, CXCR3 (Homo sapiens, UniProt P49682)
T33 construct: purchased PRESTO-Tango GPCR kit (Roth lab / Addgene)
T33 sequence (P49682 whole entry): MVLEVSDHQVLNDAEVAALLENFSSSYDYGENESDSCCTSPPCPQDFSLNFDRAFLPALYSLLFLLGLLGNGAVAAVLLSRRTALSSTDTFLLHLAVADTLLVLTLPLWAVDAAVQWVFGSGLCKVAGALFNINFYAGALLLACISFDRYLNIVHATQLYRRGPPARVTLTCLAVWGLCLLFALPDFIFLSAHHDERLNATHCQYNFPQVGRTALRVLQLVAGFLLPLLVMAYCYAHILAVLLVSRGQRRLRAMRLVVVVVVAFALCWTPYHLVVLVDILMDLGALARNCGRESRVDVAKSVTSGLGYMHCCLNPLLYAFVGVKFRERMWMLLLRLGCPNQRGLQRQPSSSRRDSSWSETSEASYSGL
Outline: as §1

ADRA1D = target: T34, ADRA1D (Homo sapiens, UniProt P25100)
T34 construct: purchased PRESTO-Tango GPCR kit (Roth lab / Addgene)
Outline: as §1

GPR151 = target: T35, GPR151 (Homo sapiens, UniProt Q8TDV0)
T35 construct: purchased PRESTO-Tango GPCR kit (Roth lab / Addgene)
Outline: as §1

T1 sequence (P41968 whole entry): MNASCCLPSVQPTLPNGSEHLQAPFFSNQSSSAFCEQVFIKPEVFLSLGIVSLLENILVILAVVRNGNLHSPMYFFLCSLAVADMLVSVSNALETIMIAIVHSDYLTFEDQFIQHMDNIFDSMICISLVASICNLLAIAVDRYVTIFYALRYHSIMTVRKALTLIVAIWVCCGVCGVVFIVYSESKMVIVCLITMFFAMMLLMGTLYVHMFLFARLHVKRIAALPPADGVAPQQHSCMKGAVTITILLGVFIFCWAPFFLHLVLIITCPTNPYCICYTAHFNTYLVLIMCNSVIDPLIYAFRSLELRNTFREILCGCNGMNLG

| Compound | GPCR activation (heatmap value) (MC3R) | GPCR activation (heatmap value) (ADRB3) | GPCR activation (heatmap value) (NPBW1) | GPCR activation (heatmap value) (LTB4R) | GPCR activation (heatmap value) (CHRM5) | GPCR activation (heatmap value) (CRHR1) | GPCR activation (heatmap value) (ADRA2B) | GPCR activation (heatmap value) (DRD1) | GPCR activation (heatmap value) (MRGPRX3) | GPCR activation (heatmap value) (PTGER3) | GPCR activation (heatmap value) (GPR56) | GPCR activation (heatmap value) (GPR111) | GPCR activation (heatmap value) (GPRC6A) | GPCR activation (heatmap value) (CHRM2) | GPCR activation (heatmap value) (OPRL1) | GPCR activation (heatmap value) (AVPR2) | GPCR activation (heatmap value) (CYSLTR2) | GPCR activation (heatmap value) (CCR6) | GPCR activation (heatmap value) (GPRC5B) | GPCR activation (heatmap value) (CHRM3) | further results |
| --- | --- | --- | --- | --- | --- | --- | --- | --- | --- | --- | --- | --- | --- | --- | --- | --- | --- | --- | --- | --- | --- |
| CC(C)Cc1ncc(CCCCNC(=N)N)[nH]c1=O [3-Homo] | -0.2762 | -1.912 | -0.4089 | 0.1103 | -0.008955 | 0.4025 | -0.5041 | 0.1434 | -1.005 | -1.204 | -0.2489 | -0.06522 | -1.019 | 0.1441 | 0.777 | 0.2692 | -0.09894 | -1.378 | 0.238 | 0.5889 | GPCR activation (heatmap value) (GPR125): -0.2637; GPCR activation (heatmap value) (GPR26): -1.573; GPCR activation (heatmap value) (NPY4R): 1.0914; GPCR activation (heatmap value) (RXFP1): -0.5413; GPCR activation (heatmap value) (MTNR1A): -0.06354; GPCR activation (heatmap value) (GPR62): 0.1938; GPCR activation (heatmap value) (P2RY14): 0.07991; GPCR activation (heatmap value) (PTH2R): -0.1142; GPCR activation (heatmap value) (GLP1R): 0.1789; GPCR activation (heatmap value) (NPS): -0.3425; GPCR activation (heatmap value) (NPY5R): -0.26; GPCR activation (heatmap value) (GPR78): -0.4102; GPCR activation (heatmap value) (CXCR3): 0.846; GPCR activation (heatmap value) (ADRA1D): 0.4606; GPCR activation (heatmap value) (GPR151): 0.4419 |
| CC(C)Cc1ncc(CCCNC(=N)N)[nH]c1=O [compound 3] | 0.4161 | 0.7966 | -0.8992 | -0.07274 | 0.7902 | -0.3752 | 2.203 | 0.8634 | -1.319 | 0.03461 | -0.03075 | -1.0133 | -0.9035 | 0.33 | 0.326 | -1.811 | -0.2194 | 0.5005 | 0.6932 | -0.8614 | GPCR activation (heatmap value) (GPR125): 0.4657; GPCR activation (heatmap value) (GPR26): 2.339; GPCR activation (heatmap value) (NPY4R): 0.793; GPCR activation (heatmap value) (RXFP1): -0.4212; GPCR activation (heatmap value) (MTNR1A): 0.3857; GPCR activation (heatmap value) (GPR62): 1.991; GPCR activation (heatmap value) (P2RY14): 0.6085; GPCR activation (heatmap value) (PTH2R): -0.2039; GPCR activation (heatmap value) (GLP1R): 0.3036; GPCR activation (heatmap value) (NPS): -0.7734; GPCR activation (heatmap value) (NPY5R): 0.08813; GPCR activation (heatmap value) (GPR78): -0.2783; GPCR activation (heatmap value) (CXCR3): 0.3957; GPCR activation (heatmap value) (ADRA1D): -0.2106; GPCR activation (heatmap value) (GPR151): -0.03391 |
